Measurements: publication PMC8830019, “A sensitive, accurate, and high-throughput gluco-oligosaccharide oxidase-based HRP colorimetric method for assaying lytic polysaccharide monooxygenase activity” (Biotechnology for Biofuels and Bioproducts, 2022)

Molecular target: T1, SsGOOX (recombinant gluco-oligosaccharide oxidase) (Sarocladium strictum, UniProt Q6PW77)
T1 construct: gene gluO; T. reesei cbh1 signal peptide at N-terminus, C-terminal 6xHis; codon-optimised synthetic gene, secreted by Trichoderma reesei QM9414
T1 sequence (Q6PW77 26-499): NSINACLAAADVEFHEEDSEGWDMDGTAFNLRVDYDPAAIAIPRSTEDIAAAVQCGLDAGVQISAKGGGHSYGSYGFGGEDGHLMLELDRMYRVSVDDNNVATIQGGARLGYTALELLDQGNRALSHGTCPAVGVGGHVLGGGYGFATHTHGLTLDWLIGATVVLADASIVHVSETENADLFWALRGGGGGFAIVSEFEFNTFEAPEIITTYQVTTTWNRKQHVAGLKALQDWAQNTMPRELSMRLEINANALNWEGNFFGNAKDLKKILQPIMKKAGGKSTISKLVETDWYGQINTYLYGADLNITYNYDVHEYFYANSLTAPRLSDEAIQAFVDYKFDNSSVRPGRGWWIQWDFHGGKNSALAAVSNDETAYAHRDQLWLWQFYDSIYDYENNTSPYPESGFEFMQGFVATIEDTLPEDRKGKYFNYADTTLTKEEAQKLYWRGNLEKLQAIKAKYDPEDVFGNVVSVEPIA
Experiment: HRP-coupled colorimetric H2O2 assay (4-AAP / DCHBS, A515), modified Hill's model with substrate inhibition
Format: biochemical
Settings: pH 7.0 phosphate, room temperature (about 26 C), 10 nM enzyme, 0.02-5 mM cellobiose; Hill-type fit with substrate inhibition; substrate inhibition constant; second site

## OC[C@H]1O[C@@H](O[C@H]2[C@H](O)[C@@H](O)C(O)O[C@@H]2CO)[C@H](O)[C@@H](O)[C@@H]1O (stereo partly shown) [cellobiose]
  Ki: 995 µM
